The results in this text go back to US8048884B2, “Substituted piperazinyl pyrazines and pyridines as 5-HT7 receptor antagonists” (Eli Lilly and Company, priority 2007, dated 2011).

“And” between values parts separate entries of the source, which are not always exact repeats. Equal entries are not always repeated. Structures can show the parent of a compound that is named as a salt.

The target in assay [1] is T1, 5-HT7 receptor (Homo sapiens, UniProt P34969).
T1 construct: expressed in transfected cells
T1 sequence (P34969 whole entry): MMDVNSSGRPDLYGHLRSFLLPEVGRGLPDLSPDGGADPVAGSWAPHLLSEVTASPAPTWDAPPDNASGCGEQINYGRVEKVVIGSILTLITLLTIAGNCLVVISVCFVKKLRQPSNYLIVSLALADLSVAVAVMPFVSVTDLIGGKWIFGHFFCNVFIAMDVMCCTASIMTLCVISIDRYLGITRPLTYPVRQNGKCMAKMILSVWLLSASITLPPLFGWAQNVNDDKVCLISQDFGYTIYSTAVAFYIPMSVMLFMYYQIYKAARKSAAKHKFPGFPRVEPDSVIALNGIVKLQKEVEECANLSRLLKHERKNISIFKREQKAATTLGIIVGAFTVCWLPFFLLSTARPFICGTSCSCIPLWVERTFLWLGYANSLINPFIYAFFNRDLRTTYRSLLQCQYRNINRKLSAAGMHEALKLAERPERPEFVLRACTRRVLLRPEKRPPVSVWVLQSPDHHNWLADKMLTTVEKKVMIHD
Description: Functional antagonist assay: measurement of cAMP formation. The class given is cell-based. The note with it: 5-HT7-expressing AV-12 cells. The protocol: For cAMP functional assays, the 5-HT7-expressing cells from above are grown in 150 cm^2 flasks and processed essentially as follows. The media is aspirated from the flasks and cells are washed with 1 mL PBS. The cells are released from monolayer with enzyme free cell dissociation solution (Specialtymedia CAT#S-004-B, www.Chemicon.com) and resuspended in complete media. A sample of the cells is counted and the remainder is centrifuged as above for 3 min. The resulting cell pellet is resuspended in PBS at a concentration of 1×10^6 cells per mL and used directly in the cAMP assay as described.
The 5-HT7 receptor is functionally coupled to a G-protein as measured by the ability of serotonin and serotonergic drugs to stimulate cAMP production in CHO cells transfected with the 5-HT7 receptor. (Ruat, et al., Proceedings of the National Academy of Sciences (USA), 90:8547-8551, 1993.) Accordingly, functional receptor activity can be measured by measuring adenylate cyclase activity using a commercially available cell-based, homogeneous, time resolved fluorescence assay kit, as for example the kit produced by Cisbio-US, Inc. (Bedford, Mass.). Essentially, and using the protocol and reagents provided by the manufacturer, approximately 20,000 human 5-HT7 receptor-expressing AV-12 cells (as described above) are used with test compound dose concentrations in the range described for the binding assay. […] A cAMP standard curve is also run in every experiment. After the assay plates are read in an Envision™ instrument (Perkin-Elmer, Wellesley Mass.), the data are normalized to the standard curve and converted to percent inhibition for data analysis as described above for the receptor binding assay results. The Kb (nM) is calculated as a measure of the antagonist potency of the compound. Preferred compounds are those having percent inhibition>75%. Still other preferred compounds are those having Kb<50 nM.
(Cyclic AMP is a second messenger, typically raised through Gs and lowered through Gi signalling.)

A further assay has as its target T2, 5-HT1A (Homo sapiens, UniProt P08908).
T2 construct: expressed in transfected cells
T2 sequence (P08908 1-422): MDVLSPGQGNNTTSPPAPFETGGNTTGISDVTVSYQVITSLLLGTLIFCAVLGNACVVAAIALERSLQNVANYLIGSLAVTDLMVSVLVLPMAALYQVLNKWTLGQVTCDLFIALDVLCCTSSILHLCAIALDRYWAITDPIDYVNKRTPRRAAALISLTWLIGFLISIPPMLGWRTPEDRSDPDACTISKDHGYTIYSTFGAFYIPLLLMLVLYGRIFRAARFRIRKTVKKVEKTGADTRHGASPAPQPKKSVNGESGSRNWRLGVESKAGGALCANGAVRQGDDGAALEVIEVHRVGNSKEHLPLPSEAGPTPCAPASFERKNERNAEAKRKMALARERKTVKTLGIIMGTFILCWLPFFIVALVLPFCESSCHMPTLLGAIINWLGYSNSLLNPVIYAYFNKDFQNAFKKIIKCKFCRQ
Description: Radioligand binding assay, 5-HT1A subtype. On the procedure:
(§1) [^3H] […] The reactions are incubated at room temperature for 3 hr. and then counted in a Trilux Microbeta™ scintillation counter to detect receptor-bound radioligand. Binding data is analyzed by computer-assisted 4 parameter fit analysis (ID Business Solutions Ltd, Guildford, Surrey, UK). […]
(§2) Affinity for other serotonin receptor subtypes as well as for alpha 1 & 2 adrenergic receptors can readily be determined by modification of the above described radioligand receptor binding assay using membranes derived from cells stably expressing the desired receptor subtype including the 5-HT1A, 5-HT1B, and 5-HT1D subtypes, as well as the 5-HT2A, 5-HT2B, 5-HT2C, 5-HT4, 5-HT5, and 5-HT6 receptor subtypes. […]

For the next assay, the target named is T3, 5-HT1D (Homo sapiens, UniProt P28221).
T3 construct: expressed in transfected cells
T3 sequence (P28221 whole entry, species assumed): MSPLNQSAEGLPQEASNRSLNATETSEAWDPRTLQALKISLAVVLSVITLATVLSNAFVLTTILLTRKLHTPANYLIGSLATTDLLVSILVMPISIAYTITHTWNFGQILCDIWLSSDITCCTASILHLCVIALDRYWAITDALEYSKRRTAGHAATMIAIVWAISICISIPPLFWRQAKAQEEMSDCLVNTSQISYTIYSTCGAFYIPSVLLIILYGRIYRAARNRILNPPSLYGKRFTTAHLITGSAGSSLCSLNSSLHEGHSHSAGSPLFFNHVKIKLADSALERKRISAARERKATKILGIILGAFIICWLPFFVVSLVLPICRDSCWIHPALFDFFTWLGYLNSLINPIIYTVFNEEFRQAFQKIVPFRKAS
The assay can be described thus: Radioligand binding assay, 5-HT1D subtype. The protocol: as §1, §2

The target in a further assay is T4, 5-HT5 (Homo sapiens, UniProt P47898).
T4 construct: expressed in transfected cells
T4 sequence (P47898 whole entry, species assumed): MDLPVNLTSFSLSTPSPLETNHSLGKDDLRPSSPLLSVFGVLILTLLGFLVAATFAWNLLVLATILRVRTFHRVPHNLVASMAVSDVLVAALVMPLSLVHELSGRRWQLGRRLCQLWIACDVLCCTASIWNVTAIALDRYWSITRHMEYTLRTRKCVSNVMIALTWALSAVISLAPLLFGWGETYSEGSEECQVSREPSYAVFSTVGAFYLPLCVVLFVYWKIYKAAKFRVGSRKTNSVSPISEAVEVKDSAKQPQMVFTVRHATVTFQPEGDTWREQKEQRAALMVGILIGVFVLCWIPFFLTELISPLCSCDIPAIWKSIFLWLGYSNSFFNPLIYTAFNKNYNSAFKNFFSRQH
The assay can be described thus: Radioligand binding assay, 5-HT5 subtype. The protocol: as §1, §2

Another assay has as its target T5, 5-HT1B (Homo sapiens, UniProt P28222).
T5 construct: expressed in transfected cells
Description: Radioligand binding assay, 5-HT1B subtype. On the procedure:
as §1, §2

The next assay has as its target alpha 1 adrenergic. The assay can be described thus: Radioligand binding assay, alpha 1 adrenergic. The protocol: as §1, §2
In the next assay the target is T6, 5-HT2B (Homo sapiens, UniProt P41595).
T6 construct: expressed in transfected cells
T6 sequence (P41595 whole entry, species assumed): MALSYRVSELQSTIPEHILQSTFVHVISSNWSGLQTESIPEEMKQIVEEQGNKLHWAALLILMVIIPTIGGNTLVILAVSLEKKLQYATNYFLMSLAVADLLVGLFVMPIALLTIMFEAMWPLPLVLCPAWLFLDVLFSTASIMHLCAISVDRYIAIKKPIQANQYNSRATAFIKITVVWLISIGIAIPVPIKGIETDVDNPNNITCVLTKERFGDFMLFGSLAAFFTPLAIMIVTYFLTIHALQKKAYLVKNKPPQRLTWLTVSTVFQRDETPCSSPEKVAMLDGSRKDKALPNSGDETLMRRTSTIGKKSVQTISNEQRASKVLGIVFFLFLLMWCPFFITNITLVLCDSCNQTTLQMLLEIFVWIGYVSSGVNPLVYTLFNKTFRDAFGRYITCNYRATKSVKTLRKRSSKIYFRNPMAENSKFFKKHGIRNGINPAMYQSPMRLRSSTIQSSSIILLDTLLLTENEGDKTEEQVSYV
Description: Radioligand binding assay, 5-HT2B subtype. On the procedure: as §1, §2

The target in another assay is alpha 2 adrenergic. Description: Radioligand binding assay, alpha 2 adrenergic. On the procedure:
as §1, §2

The target of a further assay is T7, 5-HT4 (Homo sapiens, UniProt Q13639).
T7 construct: expressed in transfected cells
T7 sequence (Q13639 whole entry, species assumed): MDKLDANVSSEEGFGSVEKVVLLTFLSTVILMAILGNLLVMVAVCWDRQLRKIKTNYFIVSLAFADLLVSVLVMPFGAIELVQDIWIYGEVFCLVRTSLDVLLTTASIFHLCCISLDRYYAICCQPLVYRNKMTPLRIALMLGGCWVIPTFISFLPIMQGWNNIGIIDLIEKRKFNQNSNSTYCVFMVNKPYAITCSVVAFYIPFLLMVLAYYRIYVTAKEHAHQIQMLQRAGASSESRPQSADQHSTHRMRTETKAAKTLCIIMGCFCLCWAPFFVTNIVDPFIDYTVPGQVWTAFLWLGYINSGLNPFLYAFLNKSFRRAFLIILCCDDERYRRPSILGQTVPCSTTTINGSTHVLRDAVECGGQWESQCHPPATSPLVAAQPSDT
Description: Radioligand binding assay, 5-HT4 subtype. The protocol:
as §1, §2

The target of a further assay is T8, 5-HT2A (Homo sapiens, UniProt P28223).
T8 construct: expressed in transfected cells
T8 sequence (P28223 whole entry, species assumed): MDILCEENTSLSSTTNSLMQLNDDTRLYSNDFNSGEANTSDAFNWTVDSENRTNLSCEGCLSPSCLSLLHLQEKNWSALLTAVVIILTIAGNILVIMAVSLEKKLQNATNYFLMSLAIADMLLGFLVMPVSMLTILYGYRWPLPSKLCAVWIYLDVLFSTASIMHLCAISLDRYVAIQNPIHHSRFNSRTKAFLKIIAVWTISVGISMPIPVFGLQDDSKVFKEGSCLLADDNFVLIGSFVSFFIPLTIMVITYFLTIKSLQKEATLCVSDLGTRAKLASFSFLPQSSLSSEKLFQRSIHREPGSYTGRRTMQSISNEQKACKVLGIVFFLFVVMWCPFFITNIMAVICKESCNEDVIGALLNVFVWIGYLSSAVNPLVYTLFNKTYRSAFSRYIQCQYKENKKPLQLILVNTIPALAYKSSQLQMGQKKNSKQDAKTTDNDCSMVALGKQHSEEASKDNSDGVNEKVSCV
Description: Radioligand binding assay, 5-HT2A subtype. On the procedure: as §1, §2

Assay [2] concerns the target T1, 5-HT7 receptor. The assay can be described thus: 5-HT7 receptor affinity: [3H]5-HT radioligand binding assay. The following applies: [3H]5-HT competition, membranes of AV-12 cells. The protocol: Membranes for affinity and antagonist activity assays are prepared essentially as follows. AV-12 cells, stably expressing the 5-HT7 receptor, are grown as a monolayer in 5×T-150 flasks in DMEM/F12 (3:1) 5% FBS, 20 mM HEPES, […] geneticin, 50 mg/mL tobramycin. After growing to 90% confluence the media is removed and replaced with Hybritech media (a low calcium version of DMEM/F12 media having 11 mg/L calcium) containing 2% horse serum, […] dextran sulfate, 1 mg/mL nucellin, 1 mg/mL human transferrin (partially iron saturated), 50 mg/mL tobramycin, 20 mM HEPES, […] geneticin, 0.04% pluronic F68. The cells are grown overnight to condition the media. The next morning the conditioned media (−150 mL total) is removed and set aside in a sterile container. The cells are trypsinized and collected in the conditioned media. […]
To prepare membranes, the above pellets are resuspended in ice-cold Tris buffer (20 mM Tris HCl, pH 7.4 at 23° C., 5 mM EDTA) and homogenized with a Wheaton tissue grinder. […] Protein concentrations are determined by the method of Bradford. […]
as §1

The next assay has as its target T9, 5-HT2C (Homo sapiens, UniProt P28335).
T9 construct: expressed in transfected cells
T9 sequence (P28335 33-458): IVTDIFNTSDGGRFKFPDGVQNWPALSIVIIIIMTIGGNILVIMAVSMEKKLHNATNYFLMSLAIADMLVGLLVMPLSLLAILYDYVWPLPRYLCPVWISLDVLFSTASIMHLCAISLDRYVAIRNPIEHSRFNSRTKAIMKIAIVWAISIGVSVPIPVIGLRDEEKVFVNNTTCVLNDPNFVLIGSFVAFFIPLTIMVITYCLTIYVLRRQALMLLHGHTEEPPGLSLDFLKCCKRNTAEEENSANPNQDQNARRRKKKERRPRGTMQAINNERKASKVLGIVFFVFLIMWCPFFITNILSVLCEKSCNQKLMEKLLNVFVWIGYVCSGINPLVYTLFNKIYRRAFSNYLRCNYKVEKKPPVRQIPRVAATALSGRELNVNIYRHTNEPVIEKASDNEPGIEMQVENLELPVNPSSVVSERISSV
Description: Radioligand binding assay, 5-HT2C subtype. On the procedure:
as §1, §2

In the next assay the target is T10, 5-HT6 (Homo sapiens, UniProt P50406).
T10 construct: expressed in transfected cells
T10 sequence (P50406 whole entry, species assumed): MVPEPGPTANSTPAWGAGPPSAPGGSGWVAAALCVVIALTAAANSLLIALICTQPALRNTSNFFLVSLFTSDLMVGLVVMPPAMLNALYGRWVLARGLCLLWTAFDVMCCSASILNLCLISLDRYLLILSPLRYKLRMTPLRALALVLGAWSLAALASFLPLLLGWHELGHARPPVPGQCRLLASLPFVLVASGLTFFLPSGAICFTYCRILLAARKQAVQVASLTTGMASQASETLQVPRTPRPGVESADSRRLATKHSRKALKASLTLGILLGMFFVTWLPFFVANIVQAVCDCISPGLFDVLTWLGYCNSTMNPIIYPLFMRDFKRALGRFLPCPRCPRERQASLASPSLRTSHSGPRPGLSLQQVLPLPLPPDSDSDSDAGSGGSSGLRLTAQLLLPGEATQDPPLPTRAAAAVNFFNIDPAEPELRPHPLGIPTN
The assay can be described thus: Radioligand binding assay, 5-HT6 subtype. The protocol:
as §1, §2

T5 sequence (P28222 whole entry, species assumed): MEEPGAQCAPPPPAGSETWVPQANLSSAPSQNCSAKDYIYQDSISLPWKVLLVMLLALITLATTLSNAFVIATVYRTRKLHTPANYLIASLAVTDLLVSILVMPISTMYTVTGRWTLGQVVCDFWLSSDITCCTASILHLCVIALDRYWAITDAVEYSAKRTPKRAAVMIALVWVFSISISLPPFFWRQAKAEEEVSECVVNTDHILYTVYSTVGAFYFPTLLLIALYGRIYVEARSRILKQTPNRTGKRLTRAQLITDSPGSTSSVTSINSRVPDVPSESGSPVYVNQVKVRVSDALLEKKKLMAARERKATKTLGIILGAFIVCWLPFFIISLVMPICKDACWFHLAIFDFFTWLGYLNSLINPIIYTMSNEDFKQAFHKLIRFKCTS

By Kb is commonly meant the equilibrium dissociation constant of an antagonist, usually derived from a functional assay. In the case of `CN(CCN1CCN(c2nccnc2-c2ccc(F)cc2)CC1)S(=O)(=O)c1ccc(F)cc1.Cl` [Example 4, 4-Fluoro-N-{2-[3′-(4-fluoro-phenyl)-2,3,5,6-tetrahydro-[1,2′]bipyrazinyl-4-yl]-ethyl}-N-methyl-benzenesulfonamide hydrochloride], on 5-HT7 receptor [1], the antagonist character result is recorded as “full antagonists” and the inhibition result is given as “about 128%”. At 5-HT7 receptor [1] (antagonist potency), this molecule had a Kb of approximately 0.024 µM.

As usually defined, the Ki is the dissociation constant of the complex between target and ligand, obtained from inhibition or displacement. Regarding `CN(CCN1CCN(c2nccnc2-c2ccc(F)cc2)CC1)S(=O)(=O)c1cn(C)cn1` [Example 17, 1-Methyl-1H-imidazole-4-sulfonic acid {2-[3′-(4-fluoro-phenyl)-2,3,5,6-tetrahydro-[1,2′]bipyrazinyl-4-yl]-ethyl}-methyl-amide hydrochloride], the Ki on 5-HT1A was 1.5 µM; on 5-HT1D, more than 2.32 µM; on 5-HT5 it was more than 6.71 µM; at 5-HT1B it was more than 3.58 µM; on alpha 1 adrenergic, more than 1.77 µM; at 5-HT2B, more than 6.81 µM. The Ki is more than 2.43 µM on alpha 2 adrenergic; more than 6.31 µM at 5-HT4; more than 7.47 µM at 5-HT2A; ~0.0335 µM and 0.0335 µM at 5-HT7 receptor [2]; more than 8.36 µM at 5-HT2C; more than 5.83 µM on 5-HT6.
